# Source: patent US6372691B1, “Method for controlling weeds” (Sumitomo Chemical Company, Limited, priority 1999, dated 2002)
# What was measured:
# Type in all cases: in vivo
# [1] = system: common cocklebur (Xanthium strumarium); test: Test Example 2: foliar application in greenhouse pots, herbicidal activity; parameters: key: “0” means that there was no or little difference in the degree of germination or growth between the treated and the untreated tested plants at the time of examination; “10” means that the test plants died completely or their germination or growth was completely inhibited; conditions: index 0 to 10, 10 days after application
# Method: (§1) The evaluation of phytotoxicity is as follows:
# (§2) Plastic pots having a diameter of 11 cm and a depth of 8 cm were filled with upland soil, and seeded with common cocklebur (Xanthium strumarium) . The test plants were grown in a greenhouse for 5 days. After that, corn was further seeded in each of the above pots and the test plants were grown in the greenhouse for further 16 days. Emulsifiable concentrate comprising compound A or Comparative compound obtained by well mixing 5 parts of compound A or Comparative compound, 6 parts of Sorpol 3005X (produced by Toho Chemical Industry, Co., Ltd.) and 89 parts of xylene was diluted with prescribed amount of water, and the dilution was applied over the test plants uniformly using a small sprayer. The leaf stage of the corns grown for 16 days were 2-leaf stage. After the application, the test plants were grown in the greenhouse for 10 days and then, herbicidal activity and phytotoxicity to corn were examined.
# [2] = system: corn; test: Test Example 2: phytotoxicity to corn; parameters: key: No harm: Phytotoxicity is hardly seen.; Slight phytotoxicity which does not affect the growth of corn is seen.; Light phytotoxicity and light growth inhibition of corn are seen.; Middle phytotoxicity and growth inhibition of corn are seen.; Serious phytotoxicity and serious growth inhibition of corn are seen; conditions: corn at 2-leaf stage, 10 days after application
# Method: as §1
# (§3) No harm: Phytotoxicity is hardly seen.
# (§4) Light: Light phytotoxicity and light growth inhibition of corn are seen.
# (§5) Middle: Middle phytotoxicity and growth inhibition of corn are seen.
# (§6) Serious: Serious phytotoxicity and serious growth inhibition of corn are seen.
# as §2
# [3] = system: common lambsquarters (Chenopodium album); test: Test Example 1: foliar application in greenhouse pots, herbicidal activity; parameters: key: “0” means that there was no or little difference in the degree of germination or growth between the treated and the untreated tested plants at the time of examination; “10” means that the test plants died completely or their germination or growth was completely inhibited; conditions: index 0 to 10, 10 days after application
# Method: as §1
# (§7) Plastic pots having a diameter of 11 cm and a depth of 8 cm were filled with upland soil, and seeded with common lambsquarters (Chenopodium album), ivyleaf morningglory (Ipomoea hederacea), velvetleaf (Abutilon theophrasti), and corn. The test plants were grown in a greenhouse for 7 days. After that, other corn was further seeded in each of the above pots and the test plants were grown in the greenhouse for further 19 days. Emulsifiable concentrate comprising compound A obtained by well mixing 5 parts of compound A, 6 parts of Sorpol 3005X (produced by Toho Chemical Industry, Co., Ltd.) and 89 parts of xylene was diluted with prescribed amount of water, and the dilution was applied over the test plants uniformly using a small sprayer. The leaf stage of the corns grown for 26 days and 19 days were 2-leaf stage and 1-leaf stage, respectively. After the application, the test plants were grown in the greenhouse for 10 days and then, herbicidal activity and phytotoxicity to corn were examined.
# [4] = system: velvetleaf (Abutilon theophrasti); test: as above; parameters: key: “0” means that there was no or little difference in the degree of germination or growth between the treated and the untreated tested plants at the time of examination; “10” means that the test plants died completely or their germination or growth was completely inhibited; conditions: index 0 to 10, 10 days after application
# Method: as §1, §7
# [5] = system: ivyleaf morningglory (Ipomoea hederacea); test: as above; parameters: key: “0” means that there was no or little difference in the degree of germination or growth between the treated and the untreated tested plants at the time of examination; “10” means that the test plants died completely or their germination or growth was completely inhibited; conditions: index 0 to 10, 10 days after application
# Method: as §1, §7
# [6] = system: corn; test: Test Example 1: phytotoxicity to corn; parameters: key: No harm: Phytotoxicity is hardly seen.; Slight phytotoxicity which does not affect the growth of corn is seen.; Light phytotoxicity and light growth inhibition of corn are seen.; Middle phytotoxicity and growth inhibition of corn are seen.; Serious phytotoxicity and serious growth inhibition of corn are seen; conditions: 10 days after application; for Phytotoxicity C1: corn at 1-leaf stage; for Phytotoxicity C2: corn at 2-leaf stage
# Description: as §1, §3, §4, §5, §6, §7
structure (smiles),measurement,setting,value
"COC(=O)CSc1cc(-n2c(=O)cc(C(F)(F)F)n(C)c2=O)c(F)cc1Cl [Comparative compound, reference compound]",Herbicidal activity Cocklebur,[1]; dosage 2.5 g/ha,8
same,Herbicidal activity Cocklebur,[1]; dosage 5 g/ha,10
same,Herbicidal activity Cocklebur,[1]; dosage 10 g/ha,10
same,Phytotoxicity corn,[2]; dosage 2.5 g/ha,No harm
same,Phytotoxicity corn,[2]; dosage 5 g/ha,Slight
same,Phytotoxicity corn,[2]; dosage 10 g/ha,light
"COC(=O)C(C)Oc1cc(-n2c(=O)cc(C(F)(F)F)n(C)c2=O)c(F)cc1Cl (stereo not drawn) [Compound A, methyl 2-[2-chloro-4-fluoro-5-{3-methyl-2,6-dioxo-4-(trifluoromethyl)-1,2,3,6-tetrahydropyrimidin-1-yl}phenoxy]propionate]",Herbicidal activity Cocklebur,[1]; dosage 2.5 g/ha,10
same,Herbicidal activity Cocklebur,[1]; dosage 5 g/ha,10
same,Herbicidal activity Cocklebur,[1]; dosage 10 g/ha,10
same,Herbicidal activity La,[3]; dosage 5 g/ha,9
same,Herbicidal activity La,[3]; dosage 10 g/ha,10
same,Herbicidal activity La,[3]; dosage 20 g/ha,10
same,Herbicidal activity Ve,[4]; dosage 5 g/ha,10
same,Herbicidal activity Ve,[4]; dosage 10 g/ha,10
same,Herbicidal activity Ve,[4]; dosage 20 g/ha,10
same,Herbicidal activity Mo,[5]; dosage 5 g/ha,10
same,Herbicidal activity Mo,[5]; dosage 10 g/ha,10
same,Herbicidal activity Mo,[5]; dosage 20 g/ha,10
same,Phytotoxicity corn,[2]; dosage 2.5 g/ha,No harm
same,Phytotoxicity corn,[2]; dosage 5 g/ha,No harm
same,Phytotoxicity corn,[2]; dosage 10 g/ha,No harm
same,Phytotoxicity C1,[6]; dosage 5 g/ha,No harm
same,Phytotoxicity C1,[6]; dosage 10 g/ha,No harm
same,Phytotoxicity C1,[6]; dosage 20 g/ha,Slight
same,Phytotoxicity C2,[6]; dosage 5 g/ha,No harm
same,Phytotoxicity C2,[6]; dosage 10 g/ha,No harm
same,Phytotoxicity C2,[6]; dosage 20 g/ha,No harm
